# According to ChEMBL document CHEMBL1151757, “Synthesis, radiosynthesis, and biological evaluation of fluorine-18-labeled 2beta-carbo(fluoroalkoxy)-3beta-(3'-((Z)-2-haloethenyl)phenyl)nortropanes: candidate radioligands for in vivo imaging of the serotonin transporter with positron emission tomography” (J Med Chem, 2008):
# Assays:
# [1] = Ratio of drug uptake in medulla to cerebellum in anesthetized cynomolgus monkey after 155 mins postinjection; type: ADME, organism-based, Macaca fascicularis; settings: in vivo
# [2] = Drug uptake in anesthetized cynomolgus monkey brain occipital lobe after 6.5 mins postinjection; type: ADME, organism-based, Macaca fascicularis; set-up: unit not given here; settings: in vivo
# [3] = Drug uptake in anesthetized cynomolgus monkey brain occipital lobe after 15.5 mins postinjection; type: ADME, organism-based, Macaca fascicularis; settings: in vivo
# [4] = Drug uptake in anesthetized cynomolgus monkey brain occipital lobe after 45 mins postinjection; type: ADME, organism-based, Macaca fascicularis; settings: in vivo, 0.75 h
# [5] = Drug uptake in anesthetized cynomolgus monkey brain occipital lobe after 85 mins postinjection; type: ADME, organism-based, Macaca fascicularis; settings: in vivo
# [6] = Drug uptake in anesthetized cynomolgus monkey brain occipital lobe after 125 mins postinjection; type: ADME, organism-based, Macaca fascicularis; settings: in vivo
# [7] = Drug uptake in anesthetized cynomolgus monkey brain occipital lobe after 145 mins postinjection; type: ADME, organism-based, Macaca fascicularis; settings: in vivo
# [8] = Drug uptake in anesthetized cynomolgus monkey brain occipital lobe after 215 mins postinjection; type: ADME, organism-based, Macaca fascicularis; settings: in vivo
# [9] = Drug uptake in anesthetized cynomolgus monkey brain occipital lobe after 235 mins postinjection; type: ADME, organism-based, Macaca fascicularis; settings: in vivo
# [10] = Drug uptake in anesthetized cynomolgus monkey brain frontal lobe after 0.5 mins postinjection; type: ADME, organism-based, Macaca fascicularis; settings: in vivo
# [11] = Drug uptake in anesthetized cynomolgus monkey brain frontal lobe after 1.5 mins postinjection; type: ADME, organism-based, Macaca fascicularis; settings: in vivo, 0.025 h
# [12] = Drug uptake in anesthetized cynomolgus monkey brain frontal lobe after 105 mins postinjection; type: ADME, organism-based, Macaca fascicularis; settings: in vivo, 1.75 h
# [13] = Drug uptake in anesthetized cynomolgus monkey brain frontal lobe after 215 mins postinjection; type: ADME, organism-based, Macaca fascicularis; settings: in vivo
# [14] = Drug uptake in anesthetized cynomolgus monkey brain frontal lobe after 235 mins postinjection; type: ADME, organism-based, Macaca fascicularis; settings: in vivo
# [15] = Ratio of drug uptake in midbrain to cerebellum in anesthetized cynomolgus monkey after 185 mins postinjection; type: ADME, organism-based, Macaca fascicularis; settings: in vivo
# [16] = Ratio of drug uptake in pons to cerebellum in anesthetized cynomolgus monkey after 0.5 mins postinjection; type: ADME, organism-based, Macaca fascicularis; settings: in vivo
# [17] = Ratio of drug uptake in pons to cerebellum in anesthetized cynomolgus monkey after 6.5 mins postinjection; type: ADME, organism-based, Macaca fascicularis; settings: in vivo
# [18] = Ratio of drug uptake in occipital lobe to cerebellum in anesthetized cynomolgus monkey after 95 mins postinjection; type: ADME, organism-based, Macaca fascicularis; settings: in vivo
# [19] = Ratio of drug uptake in occipital lobe to cerebellum in anesthetized cynomolgus monkey after 125 mins postinjection; type: ADME, organism-based, Macaca fascicularis; settings: in vivo
# Putamen [20] = test: Drug uptake in anesthetized cynomolgus monkey brain putamen after 125 mins postinjection; type: ADME, organism-based, Macaca fascicularis; settings: in vivo
# Putamen [21] = test: Drug uptake in anesthetized cynomolgus monkey brain putamen after 225 mins postinjection; type: ADME, organism-based, Macaca fascicularis; settings: in vivo, 3.75 h
# [22] = Ratio of drug uptake in frontal lobe to cerebellum in anesthetized cynomolgus monkey after 35 mins postinjection; type: ADME, organism-based, Macaca fascicularis; settings: in vivo
# Pons [23] = test: Drug uptake in anesthetized cynomolgus monkey brain pons after 0.5 mins postinjection; type: ADME, organism-based, Macaca fascicularis; settings: in vivo
# Pons [24] = test: Drug uptake in anesthetized cynomolgus monkey brain pons after 18.5 mins postinjection; type: ADME, organism-based, Macaca fascicularis; settings: in vivo
# Pons [25] = test: Drug uptake in anesthetized cynomolgus monkey brain pons after 35 mins postinjection; type: ADME, organism-based, Macaca fascicularis; settings: in vivo
# Pons [26] = test: Drug uptake in anesthetized cynomolgus monkey brain pons after 185 mins postinjection; type: ADME, organism-based, Macaca fascicularis; settings: in vivo
# Pons [27] = test: Drug uptake in anesthetized cynomolgus monkey brain pons after 205 mins postinjection; type: ADME, organism-based, Macaca fascicularis; settings: in vivo
# [28] = Drug uptake in anesthetized cynomolgus monkey brain frontal lobe after 195 mins postinjection; type: ADME, organism-based, Macaca fascicularis; settings: in vivo, 3.25 h
# Putamen [29] = test: Drug uptake in anesthetized cynomolgus monkey brain putamen after 185 mins postinjection; type: ADME, organism-based, Macaca fascicularis; settings: in vivo
# Putamen [30] = test: Drug uptake in anesthetized cynomolgus monkey brain putamen after 205 mins postinjection; type: ADME, organism-based, Macaca fascicularis; settings: in vivo
# [31] = Ratio of drug uptake in caudate to cerebellum in anesthetized cynomolgus monkey after 12.5 mins postinjection; type: ADME, organism-based, Macaca fascicularis; settings: in vivo
# Pons [32] = test: Drug uptake in anesthetized cynomolgus monkey brain pons after 115 mins postinjection; type: ADME, organism-based, Macaca fascicularis; settings: in vivo
# Pons [33] = test: Drug uptake in anesthetized cynomolgus monkey brain pons after 155 mins postinjection; type: ADME, organism-based, Macaca fascicularis; settings: in vivo
# Pons [34] = test: Drug uptake in anesthetized cynomolgus monkey brain pons after 215 mins postinjection; type: ADME, organism-based, Macaca fascicularis; settings: in vivo
# Pons [35] = test: Drug uptake in anesthetized cynomolgus monkey brain pons after 235 mins postinjection; type: ADME, organism-based, Macaca fascicularis; settings: in vivo
# Medulla [36] = test: Drug uptake in anesthetized cynomolgus monkey brain medulla after 2.5 mins postinjection; type: ADME, organism-based, Macaca fascicularis; settings: in vivo
# Medulla [37] = test: Drug uptake in anesthetized cynomolgus monkey brain medulla after 3.5 mins postinjection; type: ADME, organism-based, Macaca fascicularis; settings: in vivo
# Medulla [38] = test: Drug uptake in anesthetized cynomolgus monkey brain medulla after 105 mins postinjection; type: ADME, organism-based, Macaca fascicularis; settings: in vivo, 1.75 h
# [39] = Ratio of drug uptake in putamen to cerebellum in anesthetized cynomolgus monkey after 35 mins postinjection; type: ADME, organism-based, Macaca fascicularis; settings: in vivo
# Medulla [40] = test: Drug uptake in anesthetized cynomolgus monkey brain medulla after 165 mins postinjection; type: ADME, organism-based, Macaca fascicularis; settings: in vivo, 2.75 h
# [41] = Octanol-water partition coefficient, log P at pH 7.4 by shake-flask method; type: physicochemical
# [42] = Ratio of drug uptake in putamen to cerebellum in anesthetized cynomolgus monkey after 165 mins postinjection; type: ADME, organism-based, Macaca fascicularis; settings: in vivo, 2.75 h
# [43] = Drug uptake in anesthetized cynomolgus monkey brain cerebellum after 3.5 mins postinjection; type: ADME, organism-based, Macaca fascicularis; settings: in vivo
# [44] = Drug uptake in anesthetized cynomolgus monkey brain cerebellum after 6.5 mins postinjection; type: ADME, organism-based, Macaca fascicularis; settings: in vivo
# [45] = Drug uptake in anesthetized cynomolgus monkey brain cerebellum after 65 mins postinjection; type: ADME, organism-based, Macaca fascicularis; settings: in vivo
# [46] = Drug uptake in anesthetized cynomolgus monkey brain cerebellum after 155 mins postinjection; type: ADME, organism-based, Macaca fascicularis; settings: in vivo
# [47] = Drug uptake in anesthetized cynomolgus monkey brain cerebellum after 235 mins postinjection; type: ADME, organism-based, Macaca fascicularis; settings: in vivo
# [48] = Drug uptake in anesthetized cynomolgus monkey brain occipital lobe after 0.5 mins postinjection; type: ADME, organism-based, Macaca fascicularis; settings: in vivo
# [49] = Ratio of drug uptake in putamen to cerebellum in anesthetized cynomolgus monkey after 235 mins postinjection; type: ADME, organism-based, Macaca fascicularis; settings: in vivo
# [50] = Ratio of drug uptake in thalamus to cerebellum in anesthetized cynomolgus monkey after 135 mins postinjection; type: ADME, organism-based, Macaca fascicularis; settings: in vivo, 2.25 h
# [51] = Ratio of drug uptake in thalamus to cerebellum in anesthetized cynomolgus monkey after 155 mins postinjection; type: ADME, organism-based, Macaca fascicularis; settings: in vivo
# Caudate [52] = test: Drug uptake in anesthetized cynomolgus monkey brain caudate after 6.5 mins postinjection; type: ADME, organism-based, Macaca fascicularis, Caudate nucleus; settings: in vivo
# Caudate [53] = test: Drug uptake in anesthetized cynomolgus monkey brain caudate after 22.5 mins postinjection; type: ADME, organism-based, Macaca fascicularis, Caudate nucleus; settings: in vivo, 0.375 h
# Caudate [54] = test: Drug uptake in anesthetized cynomolgus monkey brain caudate after 155 mins postinjection; type: ADME, organism-based, Macaca fascicularis, Caudate nucleus; settings: in vivo
# [55] = Ratio of drug uptake in occipital lobe to cerebellum in anesthetized cynomolgus monkey after 12.5 mins postinjection; type: ADME, organism-based, Macaca fascicularis; settings: in vivo
# Thalamus [56] = test: Drug uptake in anesthetized cynomolgus monkey brain thalamus after 4.5 mins postinjection; type: ADME, organism-based, Macaca fascicularis; set-up: unit not given here; settings: in vivo, 0.075 h
# Thalamus [57] = test: Drug uptake in anesthetized cynomolgus monkey brain thalamus after 9.5 mins postinjection; type: ADME, organism-based, Macaca fascicularis; set-up: unit not given here; settings: in vivo
# Thalamus [58] = test: Drug uptake in anesthetized cynomolgus monkey brain thalamus after 35 mins postinjection; type: ADME, organism-based, Macaca fascicularis; set-up: unit not given here; settings: in vivo
# Thalamus [59] = test: Drug uptake in anesthetized cynomolgus monkey brain thalamus after 45 mins postinjection; type: ADME, organism-based, Macaca fascicularis; set-up: unit not given here; settings: in vivo, 0.75 h
# Putamen [60] = test: Drug uptake in anesthetized cynomolgus monkey brain putamen after 6.5 mins postinjection; type: ADME, organism-based, Macaca fascicularis; set-up: unit not given here; settings: in vivo
# Putamen [61] = test: Drug uptake in anesthetized cynomolgus monkey brain putamen after 12.5 mins postinjection; type: ADME, organism-based, Macaca fascicularis; set-up: unit not given here; settings: in vivo
# Putamen [62] = test: Drug uptake in anesthetized cynomolgus monkey brain putamen after 35 mins postinjection; type: ADME, organism-based, Macaca fascicularis; set-up: unit not given here; settings: in vivo
# Thalamus [63] = test: Drug uptake in anesthetized cynomolgus monkey brain thalamus after 55 mins postinjection; type: ADME, organism-based, Macaca fascicularis; set-up: unit not given here; settings: in vivo
# Thalamus [64] = test: Drug uptake in anesthetized cynomolgus monkey brain thalamus after 85 mins postinjection; type: ADME, organism-based, Macaca fascicularis; set-up: unit not given here; settings: in vivo
# Midbrain [65] = test: Drug uptake in anesthetized cynomolgus monkey brain midbrain after 3.5 mins postinjection; type: ADME, organism-based, Macaca fascicularis; set-up: unit not given here; settings: in vivo
# Midbrain [66] = test: Drug uptake in anesthetized cynomolgus monkey brain midbrain after 85 mins postinjection; type: ADME, organism-based, Macaca fascicularis; set-up: unit not given here; settings: in vivo
# [67] = Ratio of drug uptake in midbrain to cerebellum in anesthetized cynomolgus monkey after 2.5 mins postinjection; type: ADME, organism-based, Macaca fascicularis; settings: in vivo
# [68] = Ratio of drug uptake in midbrain to cerebellum in anesthetized cynomolgus monkey after 95 mins postinjection; type: ADME, organism-based, Macaca fascicularis; settings: in vivo
smiles,measurement,setting,value
O=C(OCCC[18F])C1C2CCC(CC1c1cccc(/C=C\I)c1)N2 (stereo not drawn),Ratio,[1],1.8
same,Drug uptake,[2],2.83
same,Drug uptake,[3],3.53
same,Drug uptake,[4],4.09
same,Drug uptake,[5],3.52
same,Drug uptake,[6],2.96
same,Drug uptake,[7],2.82
same,Drug uptake,[8],2.08
same,Drug uptake,[9],1.99
same,Drug uptake,[10],0
same,Drug uptake,[11],0.16
same,Drug uptake,[12],2.58
same,Drug uptake,[13],1.99
same,Drug uptake,[14],1.78
same,Ratio,[15],1.9
same,Ratio,[16],1.7
same,Ratio,[17],0.7
same,Ratio,[18],1
same,Ratio,[19],1.1
same,Drug uptake,Putamen [20],4.31
same,Drug uptake,Putamen [21],3.05
same,Ratio,[22],0.6
same,Drug uptake,Pons [23],0.01
same,Drug uptake,Pons [24],4.2
same,Drug uptake,Pons [25],4.25
same,Drug uptake,Pons [26],3.31
same,Drug uptake,Pons [27],3.34
same,Drug uptake,[28],1.96
same,Drug uptake,Putamen [29],3.51
same,Drug uptake,Putamen [30],3.31
same,Ratio,[31],0.7
same,Drug uptake,Pons [32],3.98
same,Drug uptake,Pons [33],3.52
same,Drug uptake,Pons [34],3.11
same,Drug uptake,Pons [35],3.31
same,Drug uptake,Medulla [36],0.84
same,Drug uptake,Medulla [37],2.2
same,Drug uptake,Medulla [38],4.34
same,Ratio,[39],1.1
same,Drug uptake,Medulla [40],4.45
same,logD,[41],1.64
same,Ratio,[42],1.6
same,Drug uptake,[43],1.95
same,Drug uptake,[44],3.91
same,Drug uptake,[45],4.08
same,Drug uptake,[46],2.32
same,Drug uptake,[47],1.93
same,Drug uptake,[48],0.01
same,Ratio,[49],1.6
same,Ratio,[50],1.5
same,Ratio,[51],1.6
same,Drug uptake,Caudate [52],2.53
same,Drug uptake,Caudate [53],3.53
same,Drug uptake,Caudate [54],3.19
same,Ratio,[55],0.8
same,Drug uptake,Thalamus [56],2.07
same,Drug uptake,Thalamus [57],3.45
same,Drug uptake,Thalamus [58],4.81
same,Drug uptake,Thalamus [59],4.84
same,Drug uptake,Putamen [60],3.28
same,Drug uptake,Putamen [61],4.08
same,Drug uptake,Putamen [62],4.99
same,Drug uptake,Thalamus [63],4.89
same,Drug uptake,Thalamus [64],4.59
same,Drug uptake,Midbrain [65],1.74
same,Drug uptake,Midbrain [66],4.92
same,Ratio,[67],0.9
same,Ratio,[68],1.4
